Test: xn = mol fraction of the nth substance listed
Conditions: 101 kPa

CC(O)CN(C)C (stereo not given) + O
viscosity [mPa·s]
Conditions	293.15 K	303.15 K	308.15 K	313.15 K	318.15 K	323.15 K
x1 = 0.05	–	2.279	1.935	1.656	1.441	1.264
x1 = 0.0997	–	4.278	3.466	2.852	2.393	2.027
x1 = 0.1	7.22	4.74	–	–	–	2.15
x1 = 0.1507	–	5.905	4.691	3.78	3.11	2.592
x1 = 0.2001	9.89	6.37	–	4.08	–	2.82
x1 = 0.2021	–	6.775	5.334	4.263	3.485	2.881
x1 = 0.2501	–	–	5.478	4.372	3.562	2.935
x1 = 0.3003	9.87	6.34	–	4.01	–	2.8
x1 = 0.3013	–	6.703	5.288	4.227	3.449	2.847
x1 = 0.3507	–	6.218	4.934	–	3.249	2.692
x1 = 0.3998	8.61	5.52	–	3.49	–	2.47
x1 = 0.4013	–	5.613	4.485	3.628	2.989	–
x1 = 0.4578	–	4.875	3.936	3.213	2.674	–
x1 = 0.4999	6.61	4.37	–	2.8	–	2.01
x1 = 0.5049	–	4.294	3.499	2.882	2.426	–
x1 = 0.6	4.76	3.18	–	2.17	–	1.62
x1 = 0.6009	–	3.285	2.747	2.294	1.955	–
x1 = 0.7002	3.38	2.31	–	1.69	–	1.32
x1 = 0.7054	–	2.482	2.111	1.807	1.57	–
x1 = 0.7955	–	1.957	1.697	1.479	1.305	–
x1 = 0.8	2.47	1.83	–	1.4	–	1.11
x1 = 0.8905	–	1.561	1.375	1.218	1.092	–
x1 = 0.9001	1.94	1.5	–	1.17	–	0.95
x1 = 0.9564	–	1.347	1.201	1.077	0.973	–
